{"source": "ChEMBL document CHEMBL5537136", "about": "(J Med Chem, 2024)", "key": {"Cytochrome P450 2C9": {"molecular_target": "Cytochrome P450 2C9 (Homo sapiens, UniProt P11712)", "sequence (P11712 whole entry)": "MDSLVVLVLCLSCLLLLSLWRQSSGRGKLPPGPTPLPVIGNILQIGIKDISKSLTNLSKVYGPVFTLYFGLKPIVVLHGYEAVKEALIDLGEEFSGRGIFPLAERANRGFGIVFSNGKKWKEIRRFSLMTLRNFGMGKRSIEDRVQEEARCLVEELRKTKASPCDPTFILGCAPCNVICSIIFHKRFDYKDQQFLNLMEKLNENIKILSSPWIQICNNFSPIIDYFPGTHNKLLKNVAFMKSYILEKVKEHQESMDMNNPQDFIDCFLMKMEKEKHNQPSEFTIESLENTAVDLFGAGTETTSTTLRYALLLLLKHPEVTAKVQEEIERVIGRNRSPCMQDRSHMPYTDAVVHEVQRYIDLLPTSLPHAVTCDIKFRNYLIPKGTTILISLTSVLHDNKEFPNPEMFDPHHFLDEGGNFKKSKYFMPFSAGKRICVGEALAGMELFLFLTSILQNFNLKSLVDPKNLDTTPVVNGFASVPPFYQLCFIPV", "test": "Inhibition of CYP2C9 (unknown origin)", "format": "ADME"}, "[1]": {"test": "MRT (0 to infinity) in ICR mouse at 10 mg/kg, IG measured upto 24 hrs by LC-MS/MS analysis", "format": "ADME, organism-based", "conditions": "in vivo, po"}, "[2]": {"test": "Permeability across apical to basolateral side in human Caco-2 cells", "format": "ADME, cell-based"}, "[3]": {"molecular_target": "T1, Poly [ADP-ribose] polymerase tankyrase-2 (Homo sapiens, UniProt Q9H2K2)", "T1 sequence (Q9H2K2 whole entry)": "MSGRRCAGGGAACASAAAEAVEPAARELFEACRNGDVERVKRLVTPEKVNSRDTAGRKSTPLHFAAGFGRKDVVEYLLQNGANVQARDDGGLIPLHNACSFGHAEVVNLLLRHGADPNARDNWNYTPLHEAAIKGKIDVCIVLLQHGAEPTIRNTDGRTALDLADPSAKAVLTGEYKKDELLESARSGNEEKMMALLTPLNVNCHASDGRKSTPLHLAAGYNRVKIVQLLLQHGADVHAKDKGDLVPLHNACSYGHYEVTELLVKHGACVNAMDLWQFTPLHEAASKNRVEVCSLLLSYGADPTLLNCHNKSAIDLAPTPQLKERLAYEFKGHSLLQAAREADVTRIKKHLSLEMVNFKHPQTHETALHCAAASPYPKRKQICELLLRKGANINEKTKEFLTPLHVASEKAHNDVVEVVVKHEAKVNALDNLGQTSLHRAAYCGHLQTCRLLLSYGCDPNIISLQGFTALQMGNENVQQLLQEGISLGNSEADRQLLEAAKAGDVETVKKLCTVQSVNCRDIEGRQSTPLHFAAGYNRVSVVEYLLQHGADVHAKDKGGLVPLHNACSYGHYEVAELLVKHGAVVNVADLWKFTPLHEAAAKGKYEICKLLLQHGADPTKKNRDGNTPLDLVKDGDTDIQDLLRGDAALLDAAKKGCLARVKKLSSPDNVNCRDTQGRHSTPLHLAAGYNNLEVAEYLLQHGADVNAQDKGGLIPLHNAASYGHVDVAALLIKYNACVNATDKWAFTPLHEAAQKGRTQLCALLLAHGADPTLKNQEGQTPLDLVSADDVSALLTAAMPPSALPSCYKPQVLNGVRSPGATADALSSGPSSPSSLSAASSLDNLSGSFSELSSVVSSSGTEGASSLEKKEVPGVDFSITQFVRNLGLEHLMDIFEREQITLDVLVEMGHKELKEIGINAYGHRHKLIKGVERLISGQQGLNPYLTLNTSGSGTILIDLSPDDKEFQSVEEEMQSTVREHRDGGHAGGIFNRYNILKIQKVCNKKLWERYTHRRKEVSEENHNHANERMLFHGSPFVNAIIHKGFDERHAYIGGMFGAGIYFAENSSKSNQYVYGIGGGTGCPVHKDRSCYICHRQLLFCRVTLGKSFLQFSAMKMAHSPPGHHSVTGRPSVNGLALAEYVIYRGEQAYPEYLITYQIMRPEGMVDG", "test": "Inhibition of TNKS2 (unknown origin) measured after 1 hr incubation by microplate reader assay"}, "[4]": {"test": "MRT (0 to infinity) in ICR mouse at 1 mg/kg, iv measured upto 24 hrs by LC-MS/MS analysis", "format": "ADME, organism-based", "conditions": "in vivo"}, "CT26 [5]": {"tested_on": "CT26", "test": "Antitumor activity against mouse CT26 cells implanted in Balb/c mouse assessed as increase in infiltration CD8 positive T cells in tumors at 25 mg/kg, IG measured after 14 days by flow cytometry", "format": "functional, organism-based", "conditions": "time 14.0 day"}, "CT26 [6]": {"tested_on": "CT26", "test": "Antitumor activity in immunocompetent mouse CT26 cell bearing mouse model assessed as tumor growth inhibition at 25 mg/kg, IG treated twice a day measured after 14 days relative to control", "format": "functional", "conditions": "CT26, po, 336 h, time 14 day, read-out: TGI"}, "CT26 [7]": {"tested_on": "CT26", "test": "cells", "conditions": "Mus musculus, CT26, 144 h"}, "[8]": {"test": "Toxicity in Balb/c mouse bearing mouse CT26 cells assessed as morphological changes in heart at 6.25 to 25 mg/kg, IG measured after 14 days by hematoxylin and eosin staining based assay", "format": "organism-based", "conditions": "in vivo, po, 336 h, dose 6.25-25 mg/kg, time 14 day"}, "CYP3A4/5": {"molecular_target": "CYP3A4/5 (Homo sapiens, UniProt P08684+P20815)", "test": "Inhibition of CYP3A4/5 (unknown origin)", "format": "ADME, protein assay"}, "[9]": {"test": "Toxicity in Balb/c mouse bearing mouse CT26 cells assessed as morphological changes in liver at 6.25 to 25 mg/kg, IG measured after 14 days by hematoxylin and eosin staining based assay", "format": "organism-based", "conditions": "in vivo, po, 336 h, dose 6.25-25 mg/kg, time 14 day"}, "[10]": {"molecular_target": "T2, Protein mono-ADP-ribosyltransferase PARP12 (Homo sapiens, UniProt Q9H0J9)", "T2 sequence (Q9H0J9 whole entry)": "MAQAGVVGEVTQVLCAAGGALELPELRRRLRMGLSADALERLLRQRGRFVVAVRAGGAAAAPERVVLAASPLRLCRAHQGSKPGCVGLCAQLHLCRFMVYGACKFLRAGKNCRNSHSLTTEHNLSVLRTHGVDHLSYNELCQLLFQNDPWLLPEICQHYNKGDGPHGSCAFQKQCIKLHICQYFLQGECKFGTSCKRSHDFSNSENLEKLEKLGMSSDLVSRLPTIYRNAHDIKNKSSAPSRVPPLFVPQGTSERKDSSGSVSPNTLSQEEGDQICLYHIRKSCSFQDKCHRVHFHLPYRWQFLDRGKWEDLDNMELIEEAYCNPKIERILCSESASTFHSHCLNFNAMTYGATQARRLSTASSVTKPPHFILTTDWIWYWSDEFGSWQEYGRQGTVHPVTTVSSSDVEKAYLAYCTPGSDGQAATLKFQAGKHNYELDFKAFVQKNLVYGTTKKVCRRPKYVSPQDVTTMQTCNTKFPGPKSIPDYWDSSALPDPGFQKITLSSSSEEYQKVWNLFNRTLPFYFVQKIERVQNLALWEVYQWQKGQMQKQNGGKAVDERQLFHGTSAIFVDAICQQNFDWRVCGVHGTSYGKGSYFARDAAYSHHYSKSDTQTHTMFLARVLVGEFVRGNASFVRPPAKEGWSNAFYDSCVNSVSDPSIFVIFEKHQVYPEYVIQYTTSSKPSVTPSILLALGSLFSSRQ", "test": "Inhibition of PARP12 (unknown origin) measured after 1 hr incubation by microplate reader assay"}, "[11]": {"test": "Apparent volume of distribution in ICR mouse at 1 mg/kg, iv measured upto 24 hrs by LC-MS/MS analysis", "format": "ADME, organism-based", "conditions": "in vivo, read-out: Vz"}}, "note": "The source made the active and inactive calls. No cut-off for these calls is given here."}
{"smiles": "C[C@@H](C(=O)N1CCN(c2ncc(C(F)(F)F)cn2)CC1)n1cc2cccc(C(N)=O)c2n1", "values": [{"measurement": "IC50", "setting": "Cytochrome P450 2C9", "value": "> 30", "unit": "µM"}, {"measurement": "MRT inf", "setting": "[1]", "value": 2.52, "unit": "h"}, {"measurement": "Papp A→B", "setting": "[2]", "value": 25.7, "unit": "×10⁻⁶ cm/s"}, {"measurement": "IC50", "setting": "[3]", "value": 0.694, "unit": "µM"}, {"measurement": "MRT inf", "setting": "[4]", "value": 1.52, "unit": "h"}, {"measurement": "Activity", "setting": "CT26 [5]", "value": "Active"}, {"measurement": "inhibition in vivo at 25 mg/kg", "setting": "CT26 [6]", "value": 83, "unit": "%"}, {"measurement": "IC50", "setting": "CT26 [7]", "value": 16.2, "unit": "µM"}, {"measurement": "Activity", "setting": "[8]", "value": "Non-Toxic"}, {"measurement": "IC50", "setting": "CYP3A4/5", "value": "> 30", "unit": "µM"}, {"measurement": "Activity", "setting": "[9]", "value": "Non-Toxic"}, {"measurement": "IC50", "setting": "[10]", "value": 0.664, "unit": "µM"}, {"measurement": "Vd", "setting": "[11]", "value": 0.978, "unit": "L/kg"}]}
